The source of these data is patent US5681961A, “Arylsulphonamides, pharmaceutical compositions containing these compounds and processes for preparing them” (Dr. Karl Thomae GmbH, priority 1989, dated 1997).

Data set [1] relates to bronchospasm induced by arachidonic acid. The experiment in a line: Inhibition of bronchospasm induced by arachidonic acid. Type of data set: in vivo, guinea-pig. The settings on record: Cavia porcellus, iv; guinea-pigs, injected 10 min before arachidonic acid (0.5-2.0 mg/kg i.v.); graphical extrapolation. On the procedure: Guinea-pigs anaesthetised with ethyl urethane and ventilated artificially under pressure limitation are intravenously injected with arachidonic acid (a thromboxane precursor) and the consequent bronchospasms are recorded using a modified form of the method of Konzett and Rossler. The doses of arachidonic acid (0.5-2.0 mg/kg) are selected so as to give a 60% reduction in tidal volume. Increasing doses of test substance B are injected 10 minutes before the arachidonic acid. The percentage inhibition of reduction in tidal volume is determined by comparison of the maximum reduction after the administration of arachidonic acid and the corresponding value after pretreatment with the test substance.

Data set [2] deals with production of thromboxane and PGE2 in an isolated lung. The data set is described as follows: Effect on production of thromboxane and PGE2 in an isolated lung. The arrangement: species or system guinea-pig. On the procedure: Guinea-pigs are killed by a blow to the neck, the lungs are rapidly removed and washed with a tyrode solution through the pulmonary artery. The lung is perfused with the same solution (0.5 ml/min.) and ventilated under negative pressure (frequency: 52 breaths per minute, maximum pressure -20 cm H2 O). A 0.1 ml bolus of bradykinin (0.2 μM) is injected via the pulmonary arteria on two occasions, with approximately 60 minutes between boli. From 30 minutes before the second bradykinin injection 1 μM of substance B is continually added to the lung perfusate. The control lungs are perfused without the added substance. The perfusate is collected for 2 minutes be administration of bradykinin and 10 minutes thereafter. The samples are left to stand for 20 minutes at ambient temperature (conversion of thromboxane A2 into B2) and are then frozen at -20° C.
The concentrations of thromboxane B2 and PGE2 are determined by radioimmunoassay.

The next data set deals with T1, thromboxane synthetase (Homo sapiens, UniProt P24557).
T1 construct: endogenous in cells; host or cells: washed human platelets (platelet-rich plasma passed through Sepharose 2B)
T1 sequence (P24557 1-533): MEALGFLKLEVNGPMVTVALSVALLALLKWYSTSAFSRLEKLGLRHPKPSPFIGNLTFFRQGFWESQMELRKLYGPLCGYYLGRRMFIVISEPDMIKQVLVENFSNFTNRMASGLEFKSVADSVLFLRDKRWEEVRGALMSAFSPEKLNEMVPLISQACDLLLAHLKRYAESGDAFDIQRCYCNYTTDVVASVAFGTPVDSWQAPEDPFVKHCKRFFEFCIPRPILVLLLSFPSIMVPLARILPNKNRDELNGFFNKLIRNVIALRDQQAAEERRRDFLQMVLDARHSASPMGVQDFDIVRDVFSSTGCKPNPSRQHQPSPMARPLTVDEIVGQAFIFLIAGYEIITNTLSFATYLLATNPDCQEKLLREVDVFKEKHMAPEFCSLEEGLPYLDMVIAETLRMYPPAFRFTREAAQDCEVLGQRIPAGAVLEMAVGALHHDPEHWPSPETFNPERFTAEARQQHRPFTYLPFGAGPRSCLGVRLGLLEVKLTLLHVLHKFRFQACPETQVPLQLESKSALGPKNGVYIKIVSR
The experiment in a line: Inhibitory effect on thromboxane synthetase (TXB2 formation from arachidonic acid in human platelets). The settings on record: inhibition of TXB2 formation, human platelet suspension, 14C-arachidonic acid. The format is biochemical. On the procedure:
Venous human blood is anti-coagulated with 13 mM Na3 citrate and centrifuged for 10 minutes at 170×g. The supernatant platelet-rich plasma is passed through a Sepharose 2B column in order to remove the plasma proteins. Aliquots of the platelet suspension obtained are incubated with the test substance or with a solvent as control for 10 minutes at ambient temperature and after the addition of ^14 C-labelled arachidonic acid incubation is continued for a further 10 minutes. After this has been stopped with 50 μl of citric acid, extraction is carried out 3× with 500 μl of ethyl acetate and the combined extracts are distilled off with nitrogen. The residue is taken up in ethyl acetate, placed on TLC film and separated with chloroform:methanol:glacial acetic acid:water (90:8:1:0.8, v/v/v/v). The dried TLC films are placed on X-ray film for 3 days, the autoradiograms were developed and the active zones were marked on the film using the autoradiograms. After cutting out, the activity is measured in a scintillation counter and the inhibition of the formation of TXB2 is calculated. The IC50 is determined by linear interpolation.

In data set [3] the test system is lethal effects of endotoxin (E. coli 0111:B4 lipopolysaccharide). The data set is described as follows: Inhibition of the lethal effects of endotoxin. Type of data set: in vivo, rat (male Sprague-Dawley). On the procedure: Male Sprague-Dawley rate are primed by intravenous injection with 0.1 mg/kg of endotoxin (a lipopolysaccharide from E. coli 0111:B4) one week before the main study. In the main study, a potentially lethal dose of E. coli (40 mg/kg) is injected intravenously and the subsequent mortality recorded over an observation period of seven days.
The test animals are given test substance B as a suspension in 0.5% tylose by oral route one hour before and 4, 8, 24 and 48 hours after the second injection of endotoxin.

Data set [4] concerns collagen-induced thrombocyte aggregation in platelet-rich plasma. The data set is described as follows: Antithrombotic activity: collagen-induced thrombocyte aggregation (Born and Cross). The format is cell-based, human (healthy volunteers). To be noted: Homo sapiens, 10 min, 10 min incubation at 37° C. On the procedure: The thrombocyte aggregation is measured using the Born and Cross method (J. Physiol. 170: 397 (1964)) in platelet-rich plasma taken from healthy volunteers. To inhibit coagulation the blood is mixed with 3.14% sodium citrate in a ratio by volume of 1:10.
The pattern of the decrease in optical density of the platelet suspension is photometrically measured and recorded after the addition of aggregation-triggering substance. The rate of aggregation is concluded from the angle of inclination of the density curve. The point on the curve where there is maximum light transmittance is used to calculate the optical density.
The amount of collagen used is as small as possible but sufficient to produce an irreversible reaction curve. Standard commercial collagen produced by Hormonchemie of Munich is used. Before the addition of the collagen the plasma is incubated for 10 minutes with the substance at 37° C.
From the measurements obtained an EC50 is determined graphically, indicating a 50% change in the optical density in terms of the inhibition of aggregation.

The target of the next data set is T2, thromboxane (Homo sapiens, UniProt P21731).
T2 construct: endogenous in cells; host or cells: washed human platelets (platelet-rich plasma passed through Sepharose 2B)
T2 sequence (P21731 1-343): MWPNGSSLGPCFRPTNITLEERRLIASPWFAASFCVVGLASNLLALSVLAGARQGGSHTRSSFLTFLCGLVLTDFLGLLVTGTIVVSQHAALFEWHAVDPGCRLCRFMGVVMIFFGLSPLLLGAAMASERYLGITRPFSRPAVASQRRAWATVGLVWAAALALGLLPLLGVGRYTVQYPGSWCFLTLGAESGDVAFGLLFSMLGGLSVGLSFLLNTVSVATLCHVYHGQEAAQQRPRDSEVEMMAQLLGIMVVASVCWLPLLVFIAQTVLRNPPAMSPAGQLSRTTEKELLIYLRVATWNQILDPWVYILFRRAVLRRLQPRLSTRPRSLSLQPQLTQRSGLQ
The experiment in a line: Thromboxane-antagonistic activity: displacement of 3H-labelled ligand on washed human platelets. The settings on record: displacement of 3H-ligand, human platelet suspension, 60 min ambient temperature. The format is binding. The protocol: Venous human blood is anti-coagulated with 13 mM Na3 citrate and centrifuged for 10 minutes at 170×g. The supernatant platelet-rich plasma is passed through a Sepharose 2B column in order to remove the plasma proteins. Aliquots of the platelet suspension obtained are incubated with the test substance, the ligand (^3 H-labelled) and a marker ([…]) for 60 minutes at ambient temperature and then centrifuged for 20 seconds at 10,000×g. The supernatant is removed and the pellet is dissolved in NaOH. The ^3 H activity in the supernatant corresponds to the free ligand, ^14 C gives the concentration of the marker. ^3 H in the pellet corresponds to the bound ligand whilst ^14 C is used to correct for the ligand in the extracellular space. After the process has been repeated, the displacement curve is determined from the binding values for different concentrations of the test substance and the IC50 is determined.
Background: In a radioligand displacement assay an active substance lowers the binding of a labelled ligand.

The subject of a further data set is mice. The experiment in a line: Acute toxicity, oral, mice. The settings on record: observation period 14 days; for animals died: 250 mg/kg single oral dose; for Approximate acute toxicity: single oral dose. The format is in vivo, mouse. The protocol:
The acute toxicity of the test substances was determined as a guide on groups of 10 mice after oral administration of a single dose (observation period: 14 days): […]

[5] abbreviates: 1 mg/kg oral at each dosage time point (1 h before, 4, 8, 24, 48 h after endotoxin).
[6] abbreviates: 10 mg/kg oral at each dosage time point (1 h before, 4, 8, 24, 48 h after endotoxin).

Values joined by “and” are separate entries in the source; they are usually repeats but may differ in a detail not shown here. Equal values may be shown once.

Usually ED50 stands for the dose that gives a 50% effect, or the effect in half of the subjects. For orientation: IC50 means the concentration at which inhibition is half-maximal. A lower IC50 goes with greater potency. In general, EC50 refers to the concentration needed to bring the measured effect to its halfway point. Lower therefore signals higher potency in that assay. With `O=C(O)CCCC=C(c1ccc(CCNS(=O)(=O)c2ccc(Cl)cc2)cc1)c1cccnc1` [B], in data set [1], the ED50 is 8.1 µg/kg. In addition, in data set [2] (1 μM in lung perfusate), the “effect on formation of PGE2 (in words)” value was “promoting the formation of PGE2” and the “effect on thromboxane production (in words)” value was “hinders thromboxane production”. Also, the “Ratio of mediator release after 2nd / after 1st administration of bradykinin: Thromboxane B2” value in data set [2] (1 μM in perfusate at time of 2nd bradykinin, individual values, control 1.18, 0.50, 0.84) is 0.0. Also, the “Ratio of mediator release after 2nd / after 1st administration of bradykinin: PGE2” value in data set [2] (1 μM in perfusate at time of 2nd bradykinin, individual values, control 1.28, 1.12, 1.09) is 5.08 and 2.23. On thromboxane synthetase, this molecule returned an IC50 of 0.8 nM. Besides, in data set [3] (setting [5]), the “Rats alive/total after 2 days” value was 7/10 and the “Rats alive/total after 7 days” value is reported as 6/10. In data set [3] (setting [6]), the “Rats alive/total after 2 days” value was 8/10 and the “Rats alive/total after 7 days” value was 5/10. This molecule also came in with an EC50 in data set [4] of 150 nM. At thromboxane, the IC50 worked out at 20 nM. In the data set on mice, the animals died is 0 out of 10 and the Approximate acute toxicity is listed as 250 mg/kg.

On to `Cc1ccc(S(=O)(=O)NC2Cc3ccc(C(=CCCCC(=O)O)c4cccnc4)cc3C2)cc1` (stereo not shown) [A], for which, at thromboxane synthetase, it took 3 nM to reach half-maximal inhibition (IC50). The molecule further displayed an EC50 in data set [4] of 300 nM. On thromboxane, this molecule yielded an IC50 of 23 nM. Besides, in the data set with mice, the animals died is on record as 0 out of 10 and the Approximate acute toxicity was determined as 250 mg/kg.

In turn, `O=C(O)CCCCC(c1ccc(CCNS(=O)(=O)c2ccc(Cl)cc2)cc1)c1cccnc1` (stereo not shown) [D] yielded an IC50 against thromboxane synthetase of 1 nM. In data set [4], this molecule had an EC50 of 1200 nM. Moreover, the IC50 at thromboxane was 80 nM. Moreover, in the data set with mice, the animals died is 0 out of 10 and the Approximate acute toxicity came to 250 mg/kg.

`O=C(O)CCCCC(c1cccnc1)c1ccc2c(c1)CC(NS(=O)(=O)c1ccc(Cl)cc1)C2` (stereo not shown) [C] registered an IC50 against thromboxane synthetase of 3 nM. Also, the midpoint of the response in data set [4], the EC50, lay at 300 nM. This molecule returned an IC50 on thromboxane of 80 nM. Also, in the data set with mice, the animals died is 0 out of 10 and the Approximate acute toxicity amounted to 250 mg/kg.

As to `O=C(O)CCCC=C(c1ccc(CCNS(=O)(=O)c2ccc(C(F)(F)F)cc2)cc1)c1cccnc1` [E], half-maximal inhibition on thromboxane synthetase (IC50) required 6 nM. The molecule also gave an EC50 in data set [4] of 100 nM. In addition, on thromboxane, the IC50 stood at 28 nM. In the data set with mice, the animals died is 0 out of 10 and the Approximate acute toxicity is reported as 250 mg/kg.
